# Results: publication PMC6350621, “Small-molecules that covalently react with a human prolyl hydroxylase – towards activity modulation and substrate capture” (Chemical Communications (Cambridge, England), 2018)
# Molecular target: T1, PHD2 (Homo sapiens, UniProt Q9GZT9)
# T1 construct: PHD2_181–426 (hereafter PHD2); His6 (N, cleaved yes); made in house; host or cells: bacterial culture (2x TY, kanamycin, IPTG)
# Test: Denaturing ESI-MS of crosslinking with PHD2
# Type: binding
# Experimental: In contrast to the likely imine adducts formed with 1/2, the PHD2·Fe·3 covalent adduct was stable to the acidic conditions of denaturing MS. […] The crosslinking could be fitted by a one-site decay function (R^2 = 0.99, GraphPad Prism), consistent with a quasi intramolecular reaction of the PHD2·Fe·3 non-covalent species to give a covalent adduct (Fig. S5, ESI ^†).
# Fig. S7 Time-course analysis of crosslinking between PHD2 and 3. PHD2 (20 µM) was incubated (37 °C, 4 h) with FeSO4 (20 µM) and 3 (30 µM). Samples were taken at regular intervals, quenched by acidification and the ratio of covalent crosslinking analysed by ESI-MS under denaturing conditions. Above: overlaid deconvoluted mass spectra; Below: variation of crosslinking with time. Data represent mean intensities of repeats (n=3), error bars show 1 standard […]
# Fig. S8 Temperature dependence of the rate of crosslinking of 3 with PHD2. PHD2 (20 µM) was incubated with equimolar Fe(II) and 3 in buffer (50 mM Tris, 150 mM NaCl, pH 7.5) at 4, 20 and 37 °C. The ratio of crosslinking after 1, 2, and 4 h was determined by ESI-MS under denaturing conditions (n = 2), error bars represent 1 standard deviation.
# Fig. S9 Ratio of crosslinked PHD2.3 before evaluation of catalytic activity.
# 100 μM. FeSO4·7H2O was dissolved in 20 mM HCl at a concentration of 100 mM. This solution was then diluted with MilliQ purified water to give a final working concentration of 100 μM. The protein was mixed with the Fe(II) solution and the inhibitor solution to give final concentrations of 20 μM PHD2, 20 μM Fe(II), and 20 μM inhibitor. The resultant solution was incubated for the appropriate time (specified in the text) at 37 […]
# (5 min or 20 min) at 37 °C. After incubation, the samples were immediately analysed by ESI-MS.
# 1.1.2 Denaturing mass spectrometry
# Intact protein masses were obtaine by liquid chromatography-mass spectrometry (LC-MS) using a Waters LCT premier XE time-of-flight mass spectrometer interfaced with a Waters 1525u HPLC pump and Waters […]
# The protein sample (10 µM, 5 µl) was injected onto a Chromolith FastGradient RP-18 2x50mm Monolithic reverse phase HPLC column and eluted at 0.4 ml.min-1 using a gradient system from Solvent A (water, 0.1 % (v/v) formic acid) to Solvent B (acetonitrile, 0.1 % (v/v) formic acid) according to the following conditions:
# Time (Min) %A %B Flow Rate (ml.min-1)
# The eluent was transferred directly to the mass spectrometer. The following MS parameters were used:
# Capillary voltage – 3,000 V; Sample cone voltage – 50 V; Extraction cone voltage – 1V; Desolvation temperature – 250 °C; Source temperature – 100 °C; Cone gas flow – 100 l.hour-1; Desolvation gas flow (N2) – 830 l.hour-1. Data were processed with MassLynx™ v4.0 (Waters) and protein peaks were deconvoluted using the Maximum Entropy method (MaxEnt1).
# 1.1.3 Analysis of protein activity by peptide turnover assay using MALDI-MS detection2 PHD2 (20 µM), Fe(II) (20 µM) and the inhibitor (30 µM) in buffer (15 mM ammonium acetate, pH 7.5) were incubated for the appropriate time (specified in the text) at 37 °C. Subsequently, the enzyme (1.5 µL, final […]
# ascorbate (1 mM), 2-oxoglutarate (100 µM) and the respective inhibitor (30 µM) in buffer (50 mM Tris, 150 mM NaCl). In the positive control no inhibitor was added. The resultant mixture was incubated at 37 °C and samples ([…]) were taken at regular intervals and quenched by addition of 1% (v/v) aqueous formic acid ([…]). Samples were analysed using a MALDI micro MX mass spectrometer (Waters) in the reflectron positive ion mode. Data were processed using MassLynx v4.0. The yield of crosslinking was determined by comparison of the signal intensities for crosslinked and unmodified protein.
# 1.1.4 Analysis of protein activity by peptide turnover assay using the AlphaScreen™ 3 The assay consisted of three parts: pre-incubation with inhibitor, the PHD2 hydroxylation reaction, and incubation with the AlphaScreen™ bead mix.
# T1 sequence (Q9GZT9 181-426): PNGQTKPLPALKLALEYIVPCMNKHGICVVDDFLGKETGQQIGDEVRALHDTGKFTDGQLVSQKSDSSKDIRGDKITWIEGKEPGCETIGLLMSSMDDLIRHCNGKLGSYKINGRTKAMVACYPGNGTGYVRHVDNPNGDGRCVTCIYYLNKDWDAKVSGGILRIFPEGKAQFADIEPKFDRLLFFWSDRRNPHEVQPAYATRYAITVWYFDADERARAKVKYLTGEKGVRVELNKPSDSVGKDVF
structure (smiles),measurement,setting,value
C=CC(=O)Nc1cccc(C(=O)NCC(=O)O)c1O [compound 3],conversion to crosslinked adduct at 4 °C,4 °C,little conversion
same,"extent of crosslinking, 0 h pre-incubation",PHD2 pre-incubated with compound 0 h,0%
same,"extent of crosslinking, 1 h pre-incubation",PHD2 pre-incubated with compound 1 h,50%
same,"extent of crosslinking, 2 h pre-incubation",PHD2 pre-incubated with compound 2 h,66%
same,"extent of crosslinking, 4 h pre-incubation",PHD2 pre-incubated with compound 4 h,90%
same,conversion to crosslinked PHD2·Fe·3 after 3 h,"timecourse, 37 °C, 3 h, PHD2 20 µM, FeSO4 20 µM, compound 30 µM",near complete conversion
